Results reported in ChEMBL document CHEMBL3046233, “Synthesis and anticonvulsant activity of 4-(2-phenoxyphenyl)semicarbazones” (Med Chem Res, 2009).

Assays:
Rattus norvegicus [1] = test: Anticonvulsant activity in Rattus norvegicus Wistar (rat) pentylenetetrazole-induced kindling model assessed as seizure latency time at 30 mg/kg, ip administered 30 min before pentylenetetrazole challenge; type: functional; settings: route intraperitoneal
Rattus norvegicus [2] = test: Anticonvulsant activity in Rattus norvegicus Wistar (rat) pentylenetetrazole-induced kindling model assessed as seizure time at 30 mg/kg, ip administered 30 min before pentylenetetrazole challenge; type: functional; settings: route intraperitoneal
Rattus norvegicus [3] = test: Neurotoxicity in Rattus norvegicus Wistar (rat) at 300 mg/kg, ip by rotarod test; type: toxicity, organism-based; design: dose 300 mg/kg, route intraperitoneal; settings: in vivo
Rattus norvegicus [4] = test: Anticonvulsant activity in Rattus norvegicus Wistar (rat) pentylenetetrazole-induced kindling model assessed as seizure latency time at 100 mg/kg, ip administered 30 min before pentylenetetrazole challenge; type: functional; settings: route intraperitoneal
Rattus norvegicus [5] = test: Anticonvulsant activity in Rattus norvegicus Wistar (rat) pentylenetetrazole-induced kindling model assessed as seizure time at 100 mg/kg, ip administered 30 min before pentylenetetrazole challenge; type: functional; settings: route intraperitoneal
Rattus norvegicus [6] = test: Anticonvulsant activity in Rattus norvegicus Wistar (rat) pentylenetetrazole-induced kindling model assessed as seizure time at 200 mg/kg, ip administered 30 min before pentylenetetrazole challenge; type: functional; settings: route intraperitoneal
Rattus norvegicus [7] = test: Anticonvulsant activity in Rattus norvegicus Wistar (rat) pentylenetetrazole-induced kindling model assessed as seizure latency time at 200 mg/kg, ip administered 30 min before pentylenetetrazole challenge; type: functional; settings: route intraperitoneal

Compound	Time (Rattus norvegicus [1]) [s]	Time (Rattus norvegicus [2]) [s]	also measured
O=C(N/N=C/c1cccnc1)Nc1ccccc1Oc1ccccc1	903	40.4	–
C/C(=N\NC(=O)Nc1ccccc1Oc1ccccc1)c1ccccc1[N+](=O)[O-]	639.2	40.6	–
O=C(N/N=C/c1ccccc1)Nc1ccccc1Oc1ccccc1	508.5	48.5	–
O=C(N/N=C/c1ccc([N+](=O)[O-])cc1)Nc1ccccc1Oc1ccccc1	293.75	79.75	–
CSc1ccc(/C(C)=N/NC(=O)Nc2ccccc2Oc2ccccc2)cc1	189.4	75	–
O=C(N/N=C/c1cccc(Br)c1)Nc1ccccc1Oc1ccccc1	229.33	81	–
C/C(=N\NC(=O)Nc1ccccc1Oc1ccccc1)c1ccccc1	293.75	48.75	–
O=C(N/N=C/c1ccncc1)Nc1ccccc1Oc1ccccc1	969.83	31.16	Activity (Rattus norvegicus [3]): Non-toxic
Cc1ccc(/C=N/NC(=O)Nc2ccccc2Oc2ccccc2)cc1	418.71	59.28	–
C/C(=N\NC(=O)Nc1ccccc1Oc1ccccc1)c1ccc([N+](=O)[O-])cc1	404.25	64.25	–
C/C(=N\NC(=O)Nc1ccccc1Oc1ccccc1)c1cccc(Br)c1	209.66	85.33	–
CCCC(CCC)C(=O)[O-].[Na+] [VALPROATE SODIUM]	–	–	Time (Rattus norvegicus [4]): 817.42 s; Time (Rattus norvegicus [5]): 40 s; Time (Rattus norvegicus [6]): 26.5 s; Time (Rattus norvegicus [7]): 900.62 s
CSc1ccc(/C=N/NC(=O)Nc2ccccc2Oc2ccccc2)cc1	244.75	66.5	–
O=C(N/N=C/c1cccc([N+](=O)[O-])c1)Nc1ccccc1Oc1ccccc1	636.2	40.2	–
COc1ccc(OC)c(/C=N/NC(=O)Nc2ccccc2Oc2ccccc2)c1	150.16	54.83	–
O=C(N/N=C/c1ccccn1)Nc1ccccc1Oc1ccccc1	1161.6	23	Activity (Rattus norvegicus [3]): Non-toxic
C/C(=N\NC(=O)Nc1ccccc1Oc1ccccc1)c1ccc(C)cc1	405.42	71.42	–
C/C(=N\NC(=O)Nc1ccccc1Oc1ccccc1)c1cccc([N+](=O)[O-])c1	832.2	32.2	–
COc1ccc(OC)c(/C(C)=N/NC(=O)Nc2ccccc2Oc2ccccc2)c1	110	69.16	–
O=C(N/N=C/c1ccccc1[N+](=O)[O-])Nc1ccccc1Oc1ccccc1	858.66	36.5	–
C/C(=N\NC(=O)Nc1ccccc1Oc1ccccc1)c1ccccc1O	532.4	33.2	–
